Consider 33 molecules from patent US8604034B2, “Substituted imidazo[1,2-α]pyrrolo[1,2-d]pyrazines for treating respiratory syncytial virus (RSV) infections” (Biota Scientific Management Pty Ltd., priority 2010, dated 2013).

The structures appear in SMILES notation. Where two headings read alike, the source gives them in different places.

The test concerns RSV A2. Nature of the test: RSV antiviral cytopathic effect (CPE) assay. It is filed as cell-based. Particulars: human respiratory syncytial virus, HEp-2, 120 h, HEp2 cells infected with RSV A2 (moi ~0.01), 5 days, MTT readout. As to the method: Compounds of the invention were tested for their antiviral activity against respiratory syncytial virus. Cytopathic effect (CPE) assays were performed essentially as described in the literature (see for example Watanabe et al, 1994, J. Virological Methods, 48:257). Serial dilutions of the test compounds were made in 96 well plates. HEp2 cells (1.0×10^4 cells/well) were infected with RSV at a low multiplicity of infection (e.g. RSV A2 at an moi of ˜0.01) and added to plates to assess antiviral activity. Uninfected HEp2 cells were used to assess compound cytotoxicity. Assays were incubated for 5 days at 37° C. in a 5% CO2 atmosphere. The extent of CPE was determined via metabolism of the vital dye 3-(4,5-dimethylthiaxol-2-yl)-2,5-diphenyltetrazolium bromide (MTT). MTT (1 mg/ml) was added to each well and plates incubated for 2 hours incubation at 37° C. Wells were aspirated, iso-propanol (200 μL) was added and absorbance values read at 540/650 nm. Compound concentrations that inhibited CPE by 50% (EC50) and developed cytotoxicity (CC50) were calculated using non-linear regression analysis.
Representative mean EC50 values obtained are also provided. In the inventors' experience, replicate EC50 values usually fall within three standard deviations of the mean.

The mark [1] stands for this setting: read-out: Activity Range (RSV A2 EC50).
Where [2] appears, read: mean EC50, read-out: RSV A2 EC50.

Regarding `O=C(c1ccoc1)N1CCN2C(=O)c3cccn3CC12c1ccc(Cl)cc1` (stereo not drawn) [Compound 15], the EC50 reads like this: under setting [1], 50 to 99 nM; under setting [2], 56 nM.
The corresponding values for `Cc1nocc1C(=O)N1CCN2C(=O)c3cccn3CC12c1ccncc1` (stereo not drawn) [Compound 122, 1-[(3-methyl-1,2-oxazol-4-yl)carbonyl]-10a-(pyridin-4-yl)-2,3,10,10a-tetrahydro-1H,5H-imidazo[1,2-a]pyrrolo[1,2-d]pyrazin-5-one] are 100 to 499 nM and 430 nM.
Consider `COc1ccc(C23Cn4cc(-c5ccc(C(=O)O)cc5)cc4C(=O)N2CCN3C(=O)c2conc2C)cc1` (stereo not drawn) [Compound 100], for which the concentration for a half-maximal effect (EC50) is 500 to 10000 nM under setting [1] and 8000 nM under setting [2].
Taken in the same sequence, the figures for `COc1ccc(C23Cn4cc(-c5cnn(C(C)C)c5)cc4C(=O)N2CCN3C(=O)c2conc2C)cc1` (stereo not drawn) [Compound 88] were 50 to 99 nM and 65 nM.
Taken in the same sequence, the figures for `Cc1nocc1C(=O)N1CCN2C(=O)c3cccn3CC12c1cccc(F)c1` (stereo not drawn) [Compound 5] were less than 49 nM and 34 nM.
The corresponding values for `Cc1nocc1C(=O)N1CCN2C(=O)c3cc(-c4cccnc4)cn3CC12c1ccc(F)cc1` (stereo not drawn) [Compound 98] are 50 to 99 nM and 69 nM.
As for `Cc1nocc1C(=O)N1CCN2C(=O)c3cccn3CC12c1ccc(=O)n(C)c1` (stereo not drawn) [Compound 143, 1-[(3-methyl-1,2-oxazol-4-yl)carbonyl]-10a-(1-methyl-6-oxo-1,6-dihydropyridin-3-yl)-2,3,10,10a-tetrahydro-1H,5H-imidazo[1,2-a]pyrrolo[1,2-d]pyrazin-5-one], the EC50 was 500 to 10000 nM under setting [1] and 750 nM under setting [2].
Taken in the same sequence, the figures for `Cc1nocc1C(=O)N1CCN2C(=O)c3ccc(Cl)n3CC12c1ccc(F)cc1` (stereo not drawn) [Compound 80] were less than 49 nM and 3.1 nM.
Taken in the same sequence, the figures for `Cc1ccc(C23Cn4cc(-c5ccccn5)cc4C(=O)N2CCN3C(=O)c2conc2C)cn1` (stereo not drawn) [Compound 127] were less than 49 nM and 27 nM.
Taken in the same sequence, the figures for `Cc1ccc(C23Cn4c(C#N)ccc4C(=O)N2CCN3C(=O)c2conc2C)cn1` (stereo not drawn) [Compound 126] were less than 49 nM and 7.8 nM.
With `Cc1nocc1C(=O)N1CCN2C(=O)c3cccn3CC12C(C)(C)C` (stereo not drawn) [Compound 21], the EC50 under setting [1] is greater than 10000 nM.
Turning to `COc1ccc(C23Cn4cccc4C(=O)N2CCN3C(=O)c2nonc2C)cc1` (stereo not drawn) [Compound 136], the EC50 runs as follows: under setting [1], 500 to 10000 nM; under setting [2], 890 nM.
As for `Cc1nocc1C(=O)N1CCN2C(=O)c3cccn3CC12c1ccc[n+]([O-])c1` (stereo not drawn) [Compound 78, 1-[(3-methyl-1,2-oxazol-4-yl)carbonyl]-10a-(1-oxidopyridin-3-yl)-2,3,10,10a-tetrahydro-1H,5H-imidazo[1,2-a]pyrrolo[1,2-d]pyrazin-5-one], the concentration for a half-maximal effect (EC50) is 500 to 10000 nM under setting [1] and 5800 nM under setting [2].
Taken in the same sequence, the figures for `Cc1ccc([C@]23Cn4cccc4C(=O)N2CCN3C(=O)c2conc2C)cn1` [Compound 77B, (10aR)-1-[(3-methyl-1,2-oxazol-4-yl)carbonyl]-10a-(6-methylpyridin-3-yl)-2,3,10,10a-tetrahydro-1H,5H-imidazo[1,2-a]pyrrolo[1,2-d]pyrazin-5-one] were less than 49 nM and 19 nM.
Taken in the same sequence, the figures for `COc1ccc(C23Cn4cccc4C(=O)N2CCN3C(=O)c2cnoc2)cc1` (stereo not drawn) [Compound 51] were 500 to 10000 nM and 700 nM.
The corresponding values for `COc1ccc(C23Cn4cc(-c5nnnn5C)cc4C(=O)N2CCN3C(=O)c2conc2C)cc1` (stereo not drawn) [Compound 145, 10a-(4-methoxyphenyl)-1-[(3-methyl-1,2-oxazol-4-yl)carbonyl]-7-(1-methyl-1H-tetrazol-5-yl)-2,3,10,10a-tetrahydro-1H,5H-imidazo[1,2-a]pyrrolo[1,2-d]pyrazin-5-one] are 500 to 10000 nM and 3700 nM.
In the case of `Cc1nocc1C(=O)N1CCN2C(=O)c3ccc(-c4ccncc4)n3CC12c1ccc(F)cc1` (stereo not drawn) [Compound 99], the EC50 runs as follows: under setting [1], 100 to 499 nM; under setting [2], 190 nM.
With `COc1ccc(C23Cn4cc(-c5cnccc5C)cc4C(=O)N2CCN3C(=O)c2conc2C)cc1` (stereo not drawn) [Compound 92], the EC50 under setting [1] was greater than 10000 nM.
In the case of `Cc1ccc([C@@]23Cn4cccc4C(=O)N2CCN3C(=O)c2conc2C)cn1` [Compound 77A, (10aS)-1-[(3-methyl-1,2-oxazol-4-yl)carbonyl]-10a-(6-methylpyridin-3-yl)-2,3,10,10a-tetrahydro-1H,5H-imidazo[1,2-a]pyrrolo[1,2-d]pyrazin-5-one], the EC50 is, setting by setting: under setting [1], 500 to 10000 nM; under setting [2], 7300 nM.
For `Cc1ccc(C23Cn4cc(-c5cnn(C)c5)cc4C(=O)N2CCN3C(=O)c2conc2C)cn1` (stereo not drawn) [Compound 132], the EC50 was less than 49 nM under setting [1] and 31 nM under setting [2].
The corresponding values for `Cc1nocc1C(=O)N1CCN2C(=O)c3nccn3CC12c1ccc(Cl)cc1` (stereo not drawn) [Compound 11] are 100 to 499 nM and 170 nM.
The corresponding values for `COc1ccc(C23Cn4nccc4C(=O)N2CCN3C(=O)c2conc2C)cc1` (stereo not drawn) [Compound 157] are 100 to 499 nM and 360 nM.
Taken in the same sequence, the figures for `Cc1ccc(C23Cn4cc(-c5cnn(C)c5)cc4C(=O)N2CCN3C(=O)c2conc2C)nc1` (stereo not drawn) [Compound 134] were less than 49 nM and 31 nM.
On to `Cc1cnc(C23Cn4cc(-c5cccnc5)cc4C(=O)N2CCN3C(=O)c2conc2C)cn1` (stereo not drawn) [Compound 121, 1-[(3-methyl-1,2-oxazol-4-yl)carbonyl]-10a-(5-methylpyrazin-2-yl)-7-(pyridin-3-yl)-2,3,10,10a-tetrahydro-1H,5H-imidazo[1,2-a]pyrrolo[1,2-d]pyrazin-5-one], for which the EC50 is less than 49 nM under setting [1] and 42 nM under setting [2].
Taken in the same sequence, the figures for `COc1ccc(C23Cn4cccc4C(=O)N2CCN3C(=O)c2conc2C)cn1` (stereo not drawn) [Compound 58] were less than 49 nM and 49 nM.
Regarding `CCN(CC)S(=O)(=O)c1ccc(C23Cn4cccc4C(=O)N2CCN3C(=O)c2conc2C)cc1` (stereo not drawn) [Compound 10], the EC50 under setting [1] was greater than 10000 nM.
As to `Cc1nocc1C(=O)N1CCN2C(=O)c3cc(-c4ccco4)nn3CC12c1ccc(Cl)cc1` (stereo not drawn) [Compound 70], the concentration giving a half-maximal response (EC50) is, setting by setting: under setting [1], less than 49 nM; under setting [2], 3.6 nM.
On to `Cc1ccc(C23Cn4cc(-c5ccncc5)cc4C(=O)N2CCN3C(=O)c2conc2C)cn1` (stereo not drawn) [Compound 135], for which the EC50 under setting [1] was less than 49 nM and the EC50 under setting [2] came out at 9.1 nM.
Taken in the same sequence, the figures for `Cc1ccc(C23Cn4c(C)ccc4C(=O)N2CCN3C(=O)c2conc2C)cn1` (stereo not drawn) [Compound 151] were less than 49 nM and 8.7 nM.
On to `Cc1nocc1C(=O)N1CCN2C(=O)c3cccn3CC12c1ccccn1` (stereo not drawn) [Compound 103, 1-[(3-methyl-1,2-oxazol-4-yl)carbonyl]-10a-(pyridin-2-yl)-2,3,10,10a-tetrahydro-1H,5H-imidazo[1,2-a]pyrrolo[1,2-d]pyrazin-5-one], for which the EC50 by setting is: under setting [1], 100 to 499 nM; under setting [2], 380 nM.
With `Cc1ccc(C23Cn4cccc4C(=O)N2CCN3C(=O)c2conc2C)nc1` (stereo not drawn) [Compound 104], the EC50 is, setting by setting: under setting [1], less than 49 nM; under setting [2], 27 nM.
The corresponding values for `O=C(c1cocn1)N1CCN2C(=O)c3cccn3CC12c1ccc(F)cc1` (stereo not drawn) [Compound 7] are 100 to 499 nM and 410 nM.
Taken in the same sequence, the figures for `Cc1nocc1C(=O)N1CCN2C(=O)c3cncn3CC12c1ccc(Cl)cc1` (stereo not drawn) [Compound 13] were 500 to 10000 nM and 1200 nM.
